Values after ≈ are worked out from the molar mass of the structure shown.
Tests used:
[1] = tested on: Rattus norvegicus; settings: for LD50: acute, mortality
[2] = tested on: Anas platyrhynchos; settings: short-term; oral; feed; mortality
[3] = tested on: Colinus virginianus; settings: acute, oral, mortality
[4] = tested on: Canidae; settings: oral, Dog Other, histopathology: nonneoplastic
[5] = tested on: Oncorhynchus mykiss; settings: acute; duration: 96 hours; mortality

Structure (SMILES) | LD50 ([1]; oral) [mg/kg-day] | NOAEL ([1]; chronic, duration: 2 years, histopathology: nonneoplastic) [mg/kg-day] | NOAEL ([1]; developmental, oral, gavage, development) [mg/kg-day] | LC50 [2] [mg/kg-day] | LC50 ([3]; diet) [mg/kg-day] | LD50 [3] [mg/kg-day] | NOAEL ([4]; chronic, duration: 1 years, capsule) [mg/kg-day] | NOAEL ([1]; chronic, duration: 104 weeks, oral, drinking water, histopathology: nonneoplastic) [mg/kg-day] | NOAEL ([1]; reproduction developmental) [mg/kg-day] | LC50 [5] [µg/mL] | NOAEL ([4]; subchronic, duration: 90 days, gavage) [mg/kg-day]
CNC(=S)[S-].[Na+] [Metam-sodium] | 896 | 1.5 | 5 | > 324 | > 448 | 211 | 0.1 |  |  |  | 
CN=C=S [Methyl isothiocyanate] | 147 |  |  |  |  |  |  | 0.44 | 3 | 0.0531 (≈ 0.726 µM) | 0.4

From EPA's ToxValDB 9.5 (doi:10.2903/j.efsa.2009.203r)
